From patent publication US9127233B2, “Device and method for solubilizing, separating, removing and reacting carboxylic acids in oils, fats, aqueous or organic solutions by means of micro-or nanoemulsification” (priority 2010, dated 2015)
Like-named read-outs stand apart in the source and are kept apart here. One block for each molecule: values may come before it.

Key:
[1] = Dynamic laser light scattering (DLS) of oleic acid micro-/nanoemulsions; assay type: physicochemical; conditions: for Mean Size by Intensity: DLS, emulsion with oleic acid; for Part: percentage of the peak in the sample
Description: (§1) The solutions were rested for 1 h and pH was measured. In case of incomplete dissolution and a pH below 7 a 1M NaOH solution was added dropwise until turbidity resolved. Then the mixtures were stirred or shaken. In order to assess the stability of the obtained micro or nanoemulsion, the solution were heated for 1 hour to 60° C. and cooled to room temperature. An other part of the clear solution was stored over night at 4° C. and then rewarmed to room temperature. Thereafter solutions were analysed for solid formation, residual oil, viscosity, turbidity, and DLS measurements were performed.
For DLS measurements a Zetasizer Nano S from Malvern (USA) was used. All measurements were repeated three times undiluted, or 1:10 and 1:100 diluted by water. For the measurements the viscosity of water and the refractory index of water were used.
Peak Maximum by Intensity: Size is directly determined from the measurement without a weighting of volume or particle number.
Peaks are presented corresponding to their percentage in the sample.
Ratio of peak maxima: Percentual distribution of particle sizes.

[2] = biological target: fatty acids bound to albumin (Homo sapiens, UniProt P02768); assay: Liberation of 3H-labeled oleic acid bound to albumin, extraction with n-hexane; conditions: identical procedure
fatty acids bound to albumin, sequence (P02768 25-609): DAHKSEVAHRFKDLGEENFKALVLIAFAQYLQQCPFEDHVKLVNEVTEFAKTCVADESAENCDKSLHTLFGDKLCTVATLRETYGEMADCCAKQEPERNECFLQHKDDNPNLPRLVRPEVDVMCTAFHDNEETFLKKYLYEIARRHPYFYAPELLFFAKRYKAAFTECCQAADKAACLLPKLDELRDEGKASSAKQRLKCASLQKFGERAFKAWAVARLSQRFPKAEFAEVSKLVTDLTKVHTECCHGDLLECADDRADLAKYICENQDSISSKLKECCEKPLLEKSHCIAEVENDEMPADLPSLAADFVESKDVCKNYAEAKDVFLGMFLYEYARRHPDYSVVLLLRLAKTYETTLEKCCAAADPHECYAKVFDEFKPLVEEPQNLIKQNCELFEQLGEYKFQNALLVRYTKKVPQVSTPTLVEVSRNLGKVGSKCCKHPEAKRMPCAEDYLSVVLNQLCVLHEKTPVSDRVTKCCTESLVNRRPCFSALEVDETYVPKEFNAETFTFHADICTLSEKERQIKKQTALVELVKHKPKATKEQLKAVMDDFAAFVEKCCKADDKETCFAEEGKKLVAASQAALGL
Excerpt: The capacity of arginine to liberate fatty acids bound to albumin was investigated by ^3H-labeled oleic acid.

[3] = pH of aqueous solution of solubilizing compound mixed with oleic acid; assay type: physicochemical; conditions: solubilizing compound in water with 0.833 mol equivalents of oleic acid
Description: (§2) In the following tests oleic acid was mixed with the test substances in H2O, Subsequently, log P and pH were measured and the solubility of the test substance in H2O was estimated together with an estimation of the interaction between oleic acid and the test substance according to the scheme shown below.
The solutions were rested for 1 h and pH was measured. In case of incomplete dissolution and a pH below 7 a 1M NaOH solution was added dropwise until turbidity resolved. Then the mixtures were stirred or shaken.

[4] = Estimation of the interaction between oleic acid and the test substance; assay type: physicochemical
Description: Several solubilizing compounds were tested in aqueous medium for their potential to solubilize a reference fatty acid, namely oleic acid.
as §2, §1
Estimation of the Interaction Between Oleic Acid and the Test Substance: • X=Interaction between oleic acid and the test substance • (X)=Interaction between oleic acid and test substance.

[5] = cited from earlier work
[6] = Estimation of solubility of the test substance in H2O; assay type: physicochemical
Description: as §2, §1
Estimation of Solubility: • X=Compound is completely dissolved • (X)=Compound is partially dissolved • ((X))=Compound is not dissolved (visual appearance) but there is a change in pH. Therefore it is assumed that at least a small part is dissolved. • −=insoluble

[7] = log P of the test substance; conditions: water (H2O), test substance mixed with oleic acid
Description: as §2

[8] = cited from earlier work; remark: listed apart in the source
[9] = n-octanol and water; cited from earlier work
[10] = Influence of the pH on the solubility of oleic acid in aqueous medium; assay type: physicochemical
Description: At the beginning the influence of the pH on the solubility of oleic acid in aqueous medium was tested. These tests were conducted in order to exclude the possibility that the observed solubility of oleic acid was due to pH changes and not primarily because of the interaction of functional groups.

Description for physchem: as §2

Molecule: Cl.N[C@@H](Cc1c[nH]cn1)C(=O)O.O [Histidine hydrochloride monohydrate]
logP (physchem): -4.37
Mean Size by Intensity [1]: 647 nm
Part [1]: 81.9%
reduction of residual fatty acids as compared to arginine [2]: significantly less
pH [3]: 9.30
Interaction with Oleic Acid [4]: X, E

logP (physchem): -3.52
Molecule: N=C(N)NCCCC(N)C(=O)O [L-Arginine, 2-amino-5-guanidinopentanoic acid]
pKa ([5]; amino group): 8.99
pKa ([5]; carboxyl group): 1.82

logP (physchem): -2.05
reduction of residual fatty acids as compared to arginine [2]: significantly less
pH [3]: 8.37
Dissolved (H2O) [6]: (X)
Interaction with Oleic Acid [4]: ((X))
Molecule: NC(=O)CC[C@H](N)C(=O)O [L-Glutamin, reference compound]

Molecule: NCCCC[C@H](N)C(=O)O [L-Lysine]
Mean Size by Intensity [1]: 133 nm
Part [1]: 95.6%
reduction of residual fatty acids as compared to arginine [2]: significantly less
logP [7]: -3.42
pH [3]: 9.56
Interaction with Oleic Acid [4]: X, E

reduction of residual fatty acids as compared to arginine [2]: significantly less
Molecule: NC(=O)C[C@H](N)C(=O)O [asparagine, reference compound]

Molecule: CO/C=C(/C(=O)OC)c1ccccc1Oc1cc(Oc2ccccc2C#N)ncn1 [azoxystrobin]
mg soluble in water [8]: 6.7 mg/L

Molecule: [Co+2].c1ccc2c(c1)-c1nc-2nc2[n-]c(nc3nc(nc4[n-]c(n1)c1ccccc41)-c1ccccc1-3)c1ccccc21 [co-phthalocyanine]
mg soluble in water [8]: unsoluble

Molecule: CCCCCCCC(=O)O [octanoic acid]
log KOW [9]: 3.05

solubility of oleic acid in aqueous medium ([10]; pH 14): formation of a solid precipitate
solubility of oleic acid in aqueous medium ([10]; pH range of 9-12 at room temperature): no interaction
solubility of oleic acid in aqueous medium ([10]; starting at pH 13): begins to dissolve
Molecule: CCCCCCCC/C=C\CCCCCCCC(=O)O [oleic acid, cis-9-octadecenoic acid]

Molecule: C1=Cc2nc1c(-c1ccccc1)c1nc(c(-c3ccccc3)c3ccc([nH]3)c(-c3ccccc3)c3ccc([nH]3)c2-c2ccccc2)C=C1 [tetraphenylporphyrin]
mg soluble in water [8]: 2 mg/L

Molecule: sudan red
mg soluble in water [8]: unsoluble
